ChEMBL document CHEMBL1123316, “Synthesis and biological activity of substance P C-terminal hexapeptide analogues: structure-activity studies” (1986)
Where a SMILES comes first, the peptide text is derived from it. [ ]: non-standard residue; d: D form. Orn = NCCC[C@H](N)C(=O)O

How the values were obtained:
Cavia porcellus = species: Cavia porcellus; assay: In vitro potency as spasmogen relative to SP against guinea pig ileum
Rattus norvegicus = species: Rattus norvegicus; assay: In vitro potency as spasmogen relative to SP against rat colon muscularis mucosae

CO[C@H](C)[C@H](N)C(=O)N[C@@H](Cc1ccccc1)C(=O)N[C@@H](Cc1ccccc1)C(=O)NCC(=O)N[C@@H](CC(C)C)C(=O)N[C@@H](CCSC)C(N)=O (H-T(Me)FFGLM-NH2)
Relative potency (Cavia porcellus): 0.066 | Relative potency (Rattus norvegicus): 0.16

CSCC[C@H](NC(=O)[C@H](CC(C)C)NC(=O)CNC(=O)[C@H](Cc1ccccc1)NC(=O)[C@H](Cc1ccccc1)NC(=O)[C@@H](N)CCCN)C(N)=O (H-[Orn]FFGLM-NH2)
Relative potency (Cavia porcellus): 0.39 | Relative potency (Rattus norvegicus): 0.36

H-QFFGLM-NH2
Relative potency (Cavia porcellus): 0.3 | Relative potency (Rattus norvegicus): 0.076

H-TFFGLM-NH2
Relative potency (Cavia porcellus): 0.021 | Relative potency (Rattus norvegicus): 0.056

H-VFFGLM-NH2
Relative potency (Cavia porcellus): 0.067 | Relative potency (Rattus norvegicus): 0.15
